According to the supplement of paper PMC10307832:

Experiments:
Assay in all cases: relative viability (nuclei count vs DMSO), 5 days (fraction); higher = more cells survive
AZ505 + Lapatinib = compound: C1CCC(CC1)N(CCNCCC2=C3C(=C(C=C2)O)NC(=O)CO3)C(=O)CCNCCC4=CC(=C(C=C4)Cl)Cl [AZ505] + CS(=O)(=O)CCNCc1ccc(-c2ccc3ncnc(Nc4ccc(OCc5cccc(F)c5)c(Cl)c4)c3c2)o1 [Lapatinib] (partner 2 µM)
Summary of the method: (§1)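 Relative viability equals treated-well nuclei counts divided by vehicle-well nuclei counts. Counts came from 4× images of lung cancer cell lines grown in 1536-well plates for 5 days after pin-tool dosing on the day after seeding. Dosing used one drug alone or a fixed anchor-drug dose plus five library-drug doses (not always all listed) in √10 steps, and values are medians of duplicate plates.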

AZ505 + Pictilisib = compound: C1CCC(CC1)N(CCNCCC2=C3C(=C(C=C2)O)NC(=O)CO3)C(=O)CCNCCC4=CC(=C(C=C4)Cl)Cl [AZ505] + CS(=O)(=O)N1CCN(Cc2cc3nc(-c4cccc5[nH]ncc45)nc(N4CCOCC4)c3s2)CC1 [Pictilisib] (partner 1 µM)
Summary of the method: as §1

Dactolisib + Lapatinib = compound: Cn1c(=O)n(-c2ccc(C(C)(C)C#N)cc2)c2c3cc(-c4cnc5ccccc5c4)ccc3ncc21 [Dactolisib] + CS(=O)(=O)CCNCc1ccc(-c2ccc3ncnc(Nc4ccc(OCc5cccc(F)c5)c(Cl)c4)c3c2)o1 [Lapatinib] (partner 2 µM)
Summary of the method: as §1

Dactolisib + Alpelisib = compound: Cn1c(=O)n(-c2ccc(C(C)(C)C#N)cc2)c2c3cc(-c4cnc5ccccc5c4)ccc3ncc21 [Dactolisib] + Cc1nc(NC(=O)N2CCC[C@H]2C(N)=O)sc1-c1ccnc(C(C)(C)C(F)(F)F)c1 [Alpelisib] (partner 2 µM)
Summary of the method: as §1

Cell Line | relative viability (AZ505 + Lapatinib; first compound 0.08 µM) | relative viability (AZ505 + Lapatinib; first compound 0.253 µM) | relative viability (AZ505 + Lapatinib; first compound 0.8 µM) | relative viability (AZ505 + Lapatinib; first compound 2.53 µM) | relative viability (AZ505 + Lapatinib; first compound 8 µM) | relative viability (AZ505 + Pictilisib; first compound 0.08 µM) | relative viability (AZ505 + Pictilisib; first compound 0.253 µM) | relative viability (AZ505 + Pictilisib; first compound 0.8 µM) | relative viability (AZ505 + Pictilisib; first compound 2.53 µM) | relative viability (AZ505 + Pictilisib; first compound 8 µM) | relative viability (Dactolisib + Lapatinib; first compound 0.002 µM) | relative viability (Dactolisib + Lapatinib; first compound 0.006325 µM) | relative viability (Dactolisib + Lapatinib; first compound 0.02 µM) | relative viability (Dactolisib + Lapatinib; first compound 0.06325 µM) | relative viability (Dactolisib + Lapatinib; first compound 0.2 µM) | relative viability (Dactolisib + Alpelisib; first compound 0.002 µM) | relative viability (Dactolisib + Alpelisib; first compound 0.006325 µM) | relative viability (Dactolisib + Alpelisib; first compound 0.02 µM) | relative viability (Dactolisib + Alpelisib; first compound 0.06325 µM) | relative viability (Dactolisib + Alpelisib; first compound 0.2 µM)
EPLC-272H | 0.785 | 0.817 | 0.867 | 0.871 | 0.956 | 0.255 | 0.306 | 0.285 | 0.256 | 0.289 | 0.879 | 0.728 | 0.664 | 0.687 | 0.4 | 0.961 | 0.752 | 0.779 | 0.527 | 0.465
EBC-1 | 0.267 | 0.243 | 0.194 | 0.19 | 0.219 | 0.374 | 0.375 | 0.345 | 0.354 | 0.328 | 0.237 | 0.203 | 0.241 | 0.19 | 0.182 | 0.832 | 0.742 | 0.58 | 0.243 | 0.207
NCI-H1915 | 1.01 | 1.07 | 0.985 | 1.05 | 1.04 | 0.907 | 0.891 | 0.835 | 0.703 | 0.913 | 0.986 | 0.956 | 0.97 | 0.964 | 0.693 | 1.1 | 1.06 | 1.05 | 0.747 | 0.519
NCI-H596 | 0.977 | 0.94 | 0.885 | 0.876 | 1.05 | 0.362 | 0.382 | 0.355 | 0.394 | 0.445 | 1.02 | 1.06 | 0.909 | 0.574 | 0.369 | 0.461 | 0.474 | 0.386 | 0.322 | 0.259
NCI-H322M | 0.535 | 0.539 | 0.611 | 0.475 | 0.576 | 0.517 | 0.422 | 0.562 | 0.508 | 0.504 | 0.612 | 0.583 | 0.616 | 0.527 | 0.508 | 0.899 | 0.839 | 0.8 | 0.609 | 0.511
NCI-H1299 | 0.918 | 1.05 | 0.923 | 0.897 | 0.978 | 0.576 | 0.672 | 0.703 | 0.546 | 0.722 | 0.998 | 0.974 | 0.98 | 0.893 | 0.661 | 1.07 | 1.08 | 1.1 | 0.829 | 0.905
NCI-H2228 | 1.09 | 0.957 | 0.939 | 0.885 | 1.11 | 0.317 | 0.247 | 0.536 | 0.332 | 0.484 | 0.993 | 0.914 | 0.496 | 0.246 | 0.246 | 0.786 | 0.461 | 0.421 | 0.198 | 0.234
IA-LM | 0.629 | 0.935 | 0.912 | 0.656 | 0.884 | – | 0.419 | 0.292 | 0.415 | 0.432 | 0.769 | 0.671 | 0.771 | 0.156 | 0.106 | 0.636 | 0.663 | 0.793 | 0.179 | 0.186
NCI-H647 | 1.03 | 1.11 | 1.01 | 1.03 | 1.17 | 0.448 | – | 0.359 | 0.422 | 0.485 | 0.912 | 0.799 | 0.646 | 0.184 | 0.169 | 1.33 | 0.811 | 0.543 | 0.164 | 0.125
SK-MES-1 | 0.406 | 0.434 | 0.499 | 0.473 | 0.445 | 0.377 | 0.394 | 0.388 | 0.38 | 0.411 | 0.476 | 0.452 | 0.428 | 0.352 | 0.296 | 1.06 | 0.842 | 0.833 | 0.474 | 0.406
NCI-H2170 | 0.269 | 0.278 | 0.24 | 0.263 | 0.275 | 0.319 | 0.289 | 0.254 | 0.336 | 0.33 | 0.263 | 0.289 | 0.262 | 0.235 | 0.222 | 0.787 | 0.754 | 0.706 | 0.479 | 0.26
NCI-H2085 | 0.67 | 0.7 | 0.668 | 0.789 | 0.83 | 0.444 | 0.39 | 0.502 | 0.435 | 0.531 | 0.798 | 0.657 | 0.659 | 0.359 | 0.337 | 1.05 | 0.762 | 0.758 | 0.437 | 0.405
NCI-H727 | 0.702 | 0.765 | 0.743 | 0.66 | 0.781 | 0.327 | 0.313 | 0.468 | 0.274 | 0.47 | 0.753 | 0.648 | 0.994 | 0.363 | 0.345 | 0.601 | 0.525 | 0.4 | 0.291 | 0.304
LOU-NH91 | 0.753 | 0.724 | 0.761 | 0.84 | 0.779 | 0.493 | 0.512 | 0.537 | 0.452 | 0.531 | 0.725 | 0.782 | 0.666 | 0.567 | 0.51 | 0.623 | 0.665 | 0.669 | 0.496 | 0.471
NCI-H3122 | 1.01 | 1.03 | 1.04 | 0.981 | 1.09 | 0.561 | 0.573 | 0.665 | 0.409 | 0.643 | 1.07 | 1.02 | 1.03 | 1.08 | 0.795 | 0.792 | 0.729 | 0.652 | 0.486 | 0.36
NCI-H460 | 0.874 | 1.1 | 0.877 | 0.922 | 1.07 | 0.264 | 0.299 | 0.337 | 0.29 | 0.364 | 0.965 | 0.945 | 0.927 | 0.234 | 0.112 | 0.723 | 0.352 | 0.35 | 0.0712 | 0.0542
